One test deals with T1, mTRPA1 (Mus musculus, UniProt Q8BLA8).
T1 construct: expressed in transfected cells
The test can be described thus: IonWorks Barracuda (IWB) automated patch clamp, TRPA1 inhibitory activity. Particulars: HEK293 cells stably expressing mTRPA1, current induced by AITC, amplitude at +100 mV; read-out: IC50 (inhibition activity on TRPA1). The test is classed as cell-based. The procedure: In this example, the inhibitory activity of the compounds prepared in some examples of the present invention on transient receptor potential channel protein ankyrin 1 (TRPA1) was tested. Among them, compound of formula A (WO2010075353) was used as the positive control compound: […]
Test method using IonWorks Barracuda (IWB) automated patch clamp detection: HEK293 cells stably expressing mTRPA1 were placed in the T175 culture flask with DMEM medium containing 15 µg/mL Blasticidin S HCl, 200 µg/mL Hygromycin B and 10% FBS, and cultured in 37° C., 5% CO2 incubator. When the cell density reached about 80%, the culture medium was removed, washed once with phosphate buffered saline (PBS) without calcium and magnesium. 3 mL of Trypsin was added to digest for 2 min, 7 mL of culture solution was added to terminate the digestion. The cells were collected to 15 mL centrifuge tube and centrifuged at 800 rpm for 3 min. After the supernatant was removed, the cells were added to appropriate volume of extracellular fluid for re-suspending, and the cell density was controlled at 2-3×10^6/mL for use in IWB experiment. Extracellular fluid formulation (in mM): 140 NaCl, 5 KCl, 1 MgCl2, 10 HEPES, 0.5 EGTA, 10 Glucose (pH 7.4); intracellular fluid formulation (in mM): 140 CsCl, 10 HEPES, 5 EGTA, 0.1 CaCl2, 1 MgCl2 (pH 7.2). 28 mg/mL of amphotericin B was freshly prepared with DMSO on the day of experiment, and then final concentration of 0.1 mg/mL was prepared with intracellular fluid.
Population patch clamp (PPC) plate was used in IWB experiment. The entire detection process was automatically carried out by the instrument, that is, extracellular fluid was added into 384 wells of PPC plate, and after intracellular fluid was added under PPC plate (in plenum), 6 µL of cell fluid was added for sealing test, and finally the intracellular fluid in plenum was replaced with intracellular fluid containing amphotericin B to establish a whole-cell recording mode after perforating sealed cells. The sampling frequency for recording TPRA1 current was 10 kHz, the cells were clamped at 0 mV, the voltage stimulation command (channel protocol) was a ramp voltage from −100 mV to +100 mV for 300 ms. This voltage stimulation was applied every 10 s, mTRPA1 current was induced by 300 µM AITC.
Data recording and current amplitude measurement export were carried out by IWB software (version 2.5.3, Molecular Devices Corporation, Union City, CA). No statistics was recorded for holes with sealing impedance lower than 20 MΩ. The original current data was corrected by software for leak subtraction. TRPA1 current amplitude was measured at +100 mV. […] If IC50 value of HC030031 exceeded 3 times of the average IC50 value previously obtained on each plate, it would be re-tested. The dose-effect curve of compounds and IC50 were fitted and calculated by GraphPad Prism 5.02 (GraphPad Software, San Diego, CA).
Some compounds of the present invention were subjected to IC50 inhibition activity test using the IonWorks Barracuda (IWB) automated patch clamp detection method.
(In patch-clamp work, channel activity is measured electrically.)

The target of another test is T2, chemokine receptor CCR9 (Homo sapiens, UniProt P51686).
T2 construct: expressed in transfected cells
T2 sequence (P51686 1-369): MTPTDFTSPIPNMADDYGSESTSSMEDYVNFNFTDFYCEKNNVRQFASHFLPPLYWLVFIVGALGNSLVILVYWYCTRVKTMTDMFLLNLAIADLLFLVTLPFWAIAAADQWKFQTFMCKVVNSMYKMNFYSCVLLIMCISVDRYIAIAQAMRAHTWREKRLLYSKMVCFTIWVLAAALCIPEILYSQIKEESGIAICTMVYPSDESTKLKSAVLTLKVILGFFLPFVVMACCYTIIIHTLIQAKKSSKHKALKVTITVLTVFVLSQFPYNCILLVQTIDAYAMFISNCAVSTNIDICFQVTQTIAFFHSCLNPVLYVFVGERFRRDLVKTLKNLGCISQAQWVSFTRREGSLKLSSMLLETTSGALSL
Description: CCR9 antagonistic activity, calcium flow (Fluo-4, FlexStation), CCL25 agonist. The class given is cell-based. The conditions noted are these: antagonistic mode, CCL25 150 nM; for inhibition at 100 µM: read-out: Inhibition rate (%) (100 μM). An excerpt: 2.1 Main reagents: DMEM culture medium (GIBCO); dimethyl sulfoxide (Sigma); FLUO-4, AM (Invitrogen) 2.2 Main instrument: Flexstation-3 (Molecular Devices) The test concentration gradient of the compound and replicates were set according to the requirement of testing ICSO. All test substances with 8 concentrations were set, with 3 replicates for each concentration. By establishing a cell line that cotransformed the receptor and G16, the receptor being activated can induce the activation of Gα16 protein, thereby activating phospholipase C (PLC) to produce IP3 and DAG. IP3 can bind to the IP3 receptor on the intracellular endoplasmic reticulum and mitochondria, leading to the release of intracellular calcium. Therefore, measuring changes in intracellular calcium can serve as a method for detecting the activation status of target receptor. Fluo-4/AM is a calcium fluorescent probe indicator used to measure calcium ion, as a non-polar lipophilic compound, under the action of cell lipase after entering cells, the AM group dissociates and releases Fluo-4; since Fluo-4 is a polar molecule, it is not easy to pass through lipid bilayers, allowing it to remain in the cell for a long time. Ultimately, the level of G protein activation can be reflected by measuring the excited fluorescence intensity. […] Cells stably expressing the target receptor/Ga16 were planted on a 96 well plate and cultured overnight. 2. The culture solution was removed from the well planted cells, then 40 μL/well of freshly prepared dye was added. The mixture was incubated at a constant temperature in a 37° C. incubator for 40 minutes. 3. The drug to be tested was diluted with calcium buffer and mixed well. 4. The dye was absorbed and discarded. After washed once with freshly prepared calcium buffer, 50 μL of calcium buffer that dissolved the drug to be tested was added for replacement. 5. The FlexStation II instrument was used for detection. Starting from the 15th second, […] dissolved with known agonist was automatically added by the instrument, and finally the fluorescence value at 525 nm was readed. The following formula was used to calculate the cell response rate (% Response) for each sample under each concentration. […] IC50 value was calculated using GraphPad Prism.

As a reminder, the IC50 is the concentration needed to halve the response being measured. By inhibition is commonly meant the relative decrease from the control value, in per cent.

T1 sequence (Q8BLA8 whole entry): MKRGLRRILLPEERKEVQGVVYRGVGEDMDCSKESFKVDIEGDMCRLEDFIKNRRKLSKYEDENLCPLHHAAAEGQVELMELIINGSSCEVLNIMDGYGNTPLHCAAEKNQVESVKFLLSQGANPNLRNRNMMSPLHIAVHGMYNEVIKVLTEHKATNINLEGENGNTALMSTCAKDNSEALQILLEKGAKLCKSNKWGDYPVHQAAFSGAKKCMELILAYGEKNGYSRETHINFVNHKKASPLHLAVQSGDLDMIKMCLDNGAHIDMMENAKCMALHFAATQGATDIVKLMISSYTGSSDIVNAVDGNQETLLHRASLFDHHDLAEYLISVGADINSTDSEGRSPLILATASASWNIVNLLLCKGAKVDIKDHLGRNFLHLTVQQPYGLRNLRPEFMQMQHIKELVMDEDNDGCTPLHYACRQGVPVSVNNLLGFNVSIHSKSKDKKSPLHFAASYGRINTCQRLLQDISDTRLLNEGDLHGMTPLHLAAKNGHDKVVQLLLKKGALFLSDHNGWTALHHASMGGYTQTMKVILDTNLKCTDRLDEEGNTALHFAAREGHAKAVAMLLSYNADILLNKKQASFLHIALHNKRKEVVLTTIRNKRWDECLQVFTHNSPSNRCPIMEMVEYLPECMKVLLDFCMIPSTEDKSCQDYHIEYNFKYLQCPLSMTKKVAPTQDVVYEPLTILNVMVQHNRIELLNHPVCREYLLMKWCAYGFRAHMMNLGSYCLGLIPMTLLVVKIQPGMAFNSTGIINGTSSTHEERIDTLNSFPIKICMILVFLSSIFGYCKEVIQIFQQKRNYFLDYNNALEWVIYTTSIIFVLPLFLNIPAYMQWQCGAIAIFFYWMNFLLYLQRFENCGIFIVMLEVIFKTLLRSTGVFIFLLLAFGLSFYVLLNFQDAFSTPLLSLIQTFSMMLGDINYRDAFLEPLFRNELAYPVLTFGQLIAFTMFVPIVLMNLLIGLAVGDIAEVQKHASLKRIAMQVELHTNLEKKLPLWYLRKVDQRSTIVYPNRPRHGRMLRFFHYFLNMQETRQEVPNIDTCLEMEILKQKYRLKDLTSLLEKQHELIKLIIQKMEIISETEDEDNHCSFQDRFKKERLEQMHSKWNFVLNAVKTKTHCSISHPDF

For the molecule `CNCc1ccc(-c2ccco2)c(NS(=O)(=O)c2ccc(F)cc2)c1` [IA-1, 4-Fluoro-N-(2-(furan-2-yl)-5-((methylamino)methyl)phenyl)benzenesulfonamide], the IC50 on mTRPA1 was in the range of 1 to 5 µM. On chemokine receptor CCR9, the inhibition at 100 µM is 14% and the IC50 is above 100 µM.
The corresponding values for `CNCc1ccc(-c2ccco2)c(NS(=O)(=O)c2ccccc2OC)c1` [IA-5, 2-Methoxy-N-(2-(furan-2-yl)-5-((methylamino)methyl)phenyl)benzenesulfonamide] are 1 to 5 µM, 0% and above 100 µM.
For `CNCc1ccc(-c2ccco2)c(NS(=O)(=O)c2ccc(F)cc2F)c1` [IA-11, 2,4-Difluoro-N-(2-(furan-2-yl)-5-((methylamino)methyl)phenyl)benzenesulfonamide] the same measures were 1 to 5 µM, 5% and above 100 µM.
Consider `CNCc1ccc(-c2ccco2)c(NS(=O)(=O)c2ccc3c(c2)CCO3)c1` [IA-15, N-(2-(furan-2-yl)-5-((methylamino)methyl)phenyl)-2,3-dihydrobenzofuran-5-sulfonamide], for which the IC50 on mTRPA1 lay in the range of 1 to 5 µM. For the same molecule, on chemokine receptor CCR9, the inhibition at 100 µM is 0% and the IC50 is above 100 µM.
With `CNCc1ccc(-c2ccco2)c(NS(=O)(=O)c2ccsc2)c1` [IA-21, N-(2-(furan-2-yl)-5-((methylamino)methyl)phenyl)thiophene-3-sulfonamide], the IC50 on mTRPA1 was 1 to 5 µM. On chemokine receptor CCR9, the inhibition at 100 µM is 25% and the IC50 is above 100 µM.
Regarding `O=S(=O)(Nc1ccc(CNC2CC2)cc1-c1ccco1)c1ccsc1` [IA-33, N-(4-((cyclopropylamino)methyl)-2-(furan-2-yl)phenyl)thiophene-3-sulfonamide], the IC50 on mTRPA1 fell in the range of 1 to 5 µM. Also, at chemokine receptor CCR9, the inhibition at 100 µM was found to be 10% and the IC50 was above 100 µM.
For `CNCc1ccc(-c2ccc(C)o2)c(NS(=O)(=O)c2ccccc2)c1` [IA-35, N-(5-((methylamino)methyl)-2-(5-methylfuran-2-yl)phenyl)benzenesulfonamide] the same measures were 1 to 5 µM, 35% and above 100 µM.
Consider `CNCc1ccc(-c2ccoc2)c(NS(=O)(=O)c2ccsc2)c1` [IA-43, N-(2-(furan-3-yl)-5-((methylamino)methyl)phenyl)thiophene-3-sulfonamide], for which the IC50 at mTRPA1 was 1 to 5 µM; at chemokine receptor CCR9, above 100 µM. The inhibition at 100 µM at chemokine receptor CCR9 was 22%.
As for `CNCc1ccc(-c2ccoc2)c(NS(=O)(=O)c2cccs2)c1` [IA-44, N-(2-(furan-3-yl)-5-((methylamino)methyl)phenyl)thiophene-2-sulfonamide], on mTRPA1, the IC50 lay in the range of 1 to 5 µM. In addition, at chemokine receptor CCR9, the inhibition at 100 µM was 12% and the IC50 is above 100 µM.
As for `CNCc1ccc(-c2cccs2)c(NS(=O)(=O)c2ccc(F)cc2)c1` [IA-45, 4-Fluoro-N-(5-((methylamino)methyl)-2-(thiophene-2-yl)phenyl)benzenesulfonamide], the IC50 on mTRPA1 is 1 to 5 µM. In addition, on chemokine receptor CCR9, the inhibition at 100 µM came out at 30% and the IC50 is above 100 µM.
Consider `CNCc1ccc(-c2ccsc2)c(NS(=O)(=O)c2ccccc2)c1` [IA-49, N-(2-(thiophene-3-yl)-5-((methylamino)methyl)phenyl)benzenesulfonamide], for which the IC50 at mTRPA1 was 1 to 5 µM. On chemokine receptor CCR9, the inhibition at 100 µM is 19% and the IC50 was above 100 µM.
Turning to `CNCc1ccc(N(C)S(=O)(=O)c2ccsc2)c(-c2ccco2)c1` [IB, N-(2-(furan-2-yl)-4-((methylamino)methyl)phenyl)-N-methylthiophene-3-sulfonamide], the IC50 on mTRPA1 was below 1 µM. In addition, on chemokine receptor CCR9, the inhibition at 100 µM is 10% and the IC50 is above 100 µM.
For the molecule `NCc1ccc(-c2ccco2)c(NS(=O)(=O)c2ccccc2)c1` [ID-1, N-(5-(aminomethyl)-2-(furan-2-yl)phenyl)benzenesulfonamide], the IC50 on mTRPA1 is below 1 µM. For the same molecule, on chemokine receptor CCR9, the inhibition at 100 µM was 15% and the IC50 was above 100 µM.
Turning to `NCc1ccc(-c2ccco2)c(NS(=O)(=O)c2ccsc2)c1` [ID-3, N-(5-(aminomethyl)-2-(furan-2-yl)phenyl)thiophene-3-sulfonamide], at mTRPA1, the IC50 is below 1 µM. At chemokine receptor CCR9, the inhibition at 100 µM was found to be 13% and the IC50 was above 100 µM.
For `NCc1ccc(NS(=O)(=O)c2ccsc2)c(-c2cc[nH]n2)c1` [ID-7, N-(4-(aminomethyl)-2-(1H-pyrazole-3-yl)phenyl)thiophene-3-sulfonamide] the same measures were 1 to 5 µM, 11% and above 100 µM.
On to `CN(c1ccc(CN)cc1-c1ccco1)S(=O)(=O)c1ccsc1` [IF, N-(4-(aminomethyl)-2-(furan-2-yl)phenyl)-N-methylthiophene-3-sulfonamide], for which the values for the IC50 at mTRPA1 and on chemokine receptor CCR9 were below 1 µM and above 100 µM, respectively. The inhibition at 100 µM on chemokine receptor CCR9 is 22%.
With `O=S(=O)(Nc1ccc(CN2CC(F)C2)cc1-c1ccco1)c1ccsc1` [IJ-2, N-(4-((3-fluoroazetidin-1-yl)methyl)-2-(furan-2-yl)phenyl)thiophene-3-sulfonamide], the IC50 at mTRPA1 fell in the range of 1 to 5 µM. Further, at chemokine receptor CCR9, the inhibition at 100 µM is 30% and the IC50 was above 100 µM.
The corresponding values for `CNCc1ccc(-n2cccc2)c(NS(=O)(=O)c2ccccc2)c1` [IQ-1, N-(5-((methylamino)methyl)-2-(1H-pyrrole-1-yl)phenyl)benzenesulfonamide] are 1 to 5 µM, 22% and above 100 µM.
The corresponding values for `CNCc1ccc(-n2cccn2)c(NS(=O)(=O)c2ccccc2)c1` [IQ-2, N-(5-((methylamino)methyl)-2-(1H-pyrazol-1-yl)phenyl)benzenesulfonamide] are 1 to 5 µM, 17% and above 100 µM.

The values above are taken from patent US20240262812A1, “N-SUBSTITUTED PHENYLSULFONAMIDE COMPOUND AND USE THEREOF” (Shanghai Leado Pharmatech Co., Ltd., priority 2021, published 2024).
